Assay results published in ChEMBL document CHEMBL5104128, “The discovery of a non-competitive GOT1 inhibitor, hydralazine hydrochloride, via a coupling reaction-based high-throughput screening assay” (Bioorg Med Chem Lett, 2022).
Structures can show the parent of a compound that is named as a salt.

Key:
[1] = target: T1, Aspartate aminotransferase, cytoplasmic (Homo sapiens, UniProt P17174); test: Inhibition of GOT1 (unknown origin) using aspartic acid and alpha-ketoglutaric acid as substrates assessed as reduction in absorbance of NADH incubated for 20 mins in presence of MDH1 and NADH by HTS assay
T1 sequence (P17174 whole entry): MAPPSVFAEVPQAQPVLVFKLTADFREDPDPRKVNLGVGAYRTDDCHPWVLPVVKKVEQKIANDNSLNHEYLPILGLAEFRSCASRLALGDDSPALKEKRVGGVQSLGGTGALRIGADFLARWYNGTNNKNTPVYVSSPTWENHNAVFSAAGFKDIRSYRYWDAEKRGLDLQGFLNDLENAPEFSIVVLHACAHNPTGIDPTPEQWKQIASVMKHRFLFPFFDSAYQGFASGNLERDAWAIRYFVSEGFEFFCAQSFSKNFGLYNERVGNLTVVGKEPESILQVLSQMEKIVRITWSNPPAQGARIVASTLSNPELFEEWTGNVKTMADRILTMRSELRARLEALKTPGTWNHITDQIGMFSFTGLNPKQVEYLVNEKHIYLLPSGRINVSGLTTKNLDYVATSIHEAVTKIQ

[2] = target: T1, Aspartate aminotransferase, cytoplasmic; test: Inhibition of human recombinant GOT1 using aspartic acid and alpha-ketoglutaric acid as substrates incubated in presence of MDH1 and NADH
[3] = target: T1, Aspartate aminotransferase, cytoplasmic; test: Inhibition of GOT1 (unknown origin)
[4] = target: T1, Aspartate aminotransferase, cytoplasmic; test: Inhibition of C-terminal His6-tagged human recombinant GOT1 expressed in Escherichia coli BL21 (DE3) cells using aspartic acid and alpha-ketoglutaric acid as substrates incubated in presence of MDH1 and NADH
[5] = target: T1, Aspartate aminotransferase, cytoplasmic; test: Noncompetitive inhibition of GOT1 (unknown origin) using alpha-Ketoglutaric acid as substrate assessed as inhibition constant by Michaelis-Menten equation based kinetic analysis
[6] = target: T1, Aspartate aminotransferase, cytoplasmic; test: Noncompetitive inhibition of GOT1 (unknown origin) using aspartic acid as substrate assessed as inhibition constant by Michaelis-Menten equation based kinetic analysis
[7] = target: T1, Aspartate aminotransferase, cytoplasmic; test: Binding affinity to GOT1 (unknown origin) assessed as dissociation constant by microscale thermophoresis assay

Nc1cccc2cnncc12
IC50 [1]: > 100 µM

Nc1cccnn1
IC50 [1]: > 100 µM

NNc1cccnn1
IC50 [1]: 29.4 µM

CC(C)=CCc1cc(/C=C2\OC(=O)C(c3cc(CC=C(C)C)c(O)cc3O)=C2O)ccc1O
IC50 [2]: 2.92 µM

NNc1nnc(Cl)c2ccccc12
IC50 [1]: 65.4 µM

NC1Cc2ccccc2N(O)C1=O (centres undefined)
IC50 [3]: 8 µM

COc1ccc(-c2ccc3cc(C(=O)O)ccc3c2)cc1C12CC3CC(CC(C3)C1)C2 [ADAPALENE]
IC50 [4]: 21.8 µM

NNc1nnc(NN)c2ccccc12 [DIHYDRALAZINE]
IC50 [1]: > 100 µM

NNc1nncc2ccccc12 [HYDRALAZINE HYDROCHLORIDE]
Ki [5]: 20.2 µM
Ki [6]: 14.7 µM
IC50 [3]: 26.6 µM
Kd [7]: 16.5 µM

NNc1nncc2ccccc12 [HYDRALAZINE]
IC50 [1]: 26.6 µM

O=C1Cc2cc(CCN3CCN(c4nsc5ccccc45)CC3)c(Cl)cc2N1 [ZIPRASIDONE]
IC50 [3]: 5.39 µM
